In brackets after ≈: the same amount, converted by molar mass.
What was measured:
[1] = Hepatic Microsome Stability Mouse; assay type: in vitro ADME
[2] = molecular target: HCV cap-independent translation; assay: In vitro translation assay, FF-HCV-Ren construct, cap-independent (Ren luciferase); assay type: biochemical, rabbit reticulocyte lysates
Outline: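 RRL + Translation Mix -Met/-Leu 1:1; cpd pre-inc 1 h RT; 0.1 μg RNA/well; 2 h 30° C; Dual-Glo reagent 1 → FF read, reagent 2 → Ren read, 10 min each. Counter-screen: cpd added post-translation.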

[3] = Aqueous Solubility in 1xPBS, pH 7.4; assay type: physicochemical; conditions: pH 7.4, aqueous buffer
Compound 38 PK Study = assay type: in vivo, C57Bl/6J mice; conditions: male, C57Bl/6J, mouse, plasma
Description: Method: Fasted male C57Bl/6J mice were dosed with a 1 mg/mL solution of Compound 38 in 10% DMSO, 10% Tween-80 and 80% water by intravenous injection (2 mg/kg, as a 0.4 mg/mL solution), oral gavage (10 mg/kg as a 1 mg/mL solution) or intraperitoneal injection (10 mg/kg as a 1 mg/mL solution). Plasma was collected at various time points and analyzed by LC/MS/MS to determine compound levels.

eIF4F complex [4] = molecular target: T1, eIF4F complex (Homo sapiens, UniProt Q04637); assay: m7GTP pull-down assay, BRAFi-sensitive and -resistant melanoma cells; assay type: cell-based
T1 construct: PLX4032), or Compound 38; endogenous in cells; host or cells: A375, A375R, Lu1205R, WM793R melanoma cells
Description: (§1) As previously described (Dowling R J, et al. mTORC1-mediated cell proliferation, but not cell growth, controlled by the 4E-BPs. Science. 2010; 328:1172-6), cells growing in 100 mm plates were washed (cold PBS), collected, and lysed in 50 mM MOPS/KOH (7.4), 100 mM NaCl, 50 mM NaF, 2 mM EDTA, 2 mM EGTA, 1% NP40, 1% Na-DOC, 7 mM β-mercaptoethanol, protease inhibitors and phosphatase inhibitor cocktail (Roche). Lysates were incubated with m7-GDP-agarose beads (Jena Bioscience) for 20 minutes, washed 4 times with the washing buffer containing 50 mM MOPS/KOH (7.4), 100 mM NaCl, 50 mM NaF, 0.5 mM EDTA, 0.5 mM EGTA, 7 mM (3-mercaptoethanol, 0.5 mM PMSF, 1 mM Na3VO4 and 0.1 mM GTP, and bound proteins were eluted by boiling the beads in loading buffer. m7-GDP-agarose pulled down material was analyzed by Western blot analysis.
As levels of the eIF4F complex inversely correlate with the effectiveness of various cancer therapies, the integrity of the eIF4F complex after treating melanoma cells with a combination of BRAFi vemurafenib (PLX4032) and Compound 38 was assessed. […] A375 and A375R (PLX4032-resistant) cells were treated with vehicle (DMSO), a BRAFi (vemurafenib; PLX4032), or Compound 38 at the indicated doses for 24 hours. Cell lysates ([…]) were subjected to m^7GTP pull-down. Amounts of the indicated proteins in input (5%) or pull-down (50%) samples were determined by Western blotting; 3-actin served as a loading control (input) and to exclude contamination (m^7GTP pull-down).

eIF4F complex [5] = molecular target: T2, eIF4F complex (Mus musculus, UniProt Q6NZJ6); assay: m7GTP pull-down assay, WT or 4E-BP DKO MEFs; assay type: cell-based; conditions: 6 hours, Torin1 250 nmol/L
T2 construct: endogenous in cells; host or cells: WT and 4E-BP1/2 double-knock-out MEFs
T2 sequence (Q6NZJ6 whole entry, one chain of several): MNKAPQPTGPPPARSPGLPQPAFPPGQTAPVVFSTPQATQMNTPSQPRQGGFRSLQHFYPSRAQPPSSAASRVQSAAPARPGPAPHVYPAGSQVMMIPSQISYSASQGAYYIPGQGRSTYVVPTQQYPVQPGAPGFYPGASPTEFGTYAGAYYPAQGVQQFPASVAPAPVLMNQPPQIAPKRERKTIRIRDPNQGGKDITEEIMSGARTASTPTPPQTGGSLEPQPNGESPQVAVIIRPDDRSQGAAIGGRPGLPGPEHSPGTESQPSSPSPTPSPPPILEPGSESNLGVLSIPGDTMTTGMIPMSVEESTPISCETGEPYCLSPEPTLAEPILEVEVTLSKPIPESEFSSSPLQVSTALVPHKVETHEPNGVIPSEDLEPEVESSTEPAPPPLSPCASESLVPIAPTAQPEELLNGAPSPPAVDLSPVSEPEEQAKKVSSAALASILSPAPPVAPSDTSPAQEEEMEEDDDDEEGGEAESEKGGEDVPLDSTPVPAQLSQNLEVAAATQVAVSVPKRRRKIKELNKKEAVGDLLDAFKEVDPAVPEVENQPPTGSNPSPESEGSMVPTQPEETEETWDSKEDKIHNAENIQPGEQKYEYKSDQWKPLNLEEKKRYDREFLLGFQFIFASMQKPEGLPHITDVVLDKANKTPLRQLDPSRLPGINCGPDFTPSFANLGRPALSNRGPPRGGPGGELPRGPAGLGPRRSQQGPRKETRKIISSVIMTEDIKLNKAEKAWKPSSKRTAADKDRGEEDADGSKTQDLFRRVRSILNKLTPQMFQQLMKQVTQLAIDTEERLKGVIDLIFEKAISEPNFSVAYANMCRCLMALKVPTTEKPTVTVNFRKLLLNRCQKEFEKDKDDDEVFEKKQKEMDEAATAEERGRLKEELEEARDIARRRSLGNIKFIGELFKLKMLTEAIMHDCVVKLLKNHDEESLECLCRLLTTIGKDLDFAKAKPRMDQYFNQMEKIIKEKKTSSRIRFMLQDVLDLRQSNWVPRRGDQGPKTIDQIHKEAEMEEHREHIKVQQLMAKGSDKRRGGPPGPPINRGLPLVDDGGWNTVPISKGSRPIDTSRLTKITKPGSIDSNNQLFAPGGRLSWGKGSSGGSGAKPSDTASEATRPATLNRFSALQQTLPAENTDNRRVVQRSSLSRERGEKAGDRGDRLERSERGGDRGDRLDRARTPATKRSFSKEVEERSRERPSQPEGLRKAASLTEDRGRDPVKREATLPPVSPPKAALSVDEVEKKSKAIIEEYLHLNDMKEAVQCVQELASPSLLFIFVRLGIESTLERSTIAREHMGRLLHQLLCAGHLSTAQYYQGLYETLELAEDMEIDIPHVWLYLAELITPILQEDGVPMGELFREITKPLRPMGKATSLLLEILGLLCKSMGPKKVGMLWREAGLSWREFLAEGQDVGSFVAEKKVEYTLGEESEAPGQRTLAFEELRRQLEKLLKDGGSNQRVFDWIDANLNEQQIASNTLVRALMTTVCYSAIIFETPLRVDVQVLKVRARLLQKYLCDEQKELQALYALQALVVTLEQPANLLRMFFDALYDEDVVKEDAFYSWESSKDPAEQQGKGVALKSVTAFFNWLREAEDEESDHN
Description: as §1
Indicated cultures (WT or DKO 4E-BP) were treated with Torin1 (250 nmol/L) or indicated Compound 38 concentrations for 6 hours. Western blots show respective protein levels in total cell lysates or following pull-down using m^7GTP agarose beads. […] P3-Actin served as a loading control and to exclude contamination in m^7GTP pull-down.

[6] = tested on: Nras^Q61K/Ink4a^−/− melanoma tumors; assay: Inducible Nras^Q61K/Ink4a^−/− genetic melanoma model; assay type: in vivo, mice; conditions: 0.5 mg/kg intraperitoneal twice a week from week 11; compared with control nontreated group
Description: In vivo, Compound 38 was evaluated using an inducible Nras^Q61K/Ink4a^−/− genetic model in which melanoma tumors emerge within 16 to 20 weeks (FIG. 20). Administration of Compound 38 only, starting 11 weeks after genetic inactivation of Ink4a and induction of […] (about 10-14 days prior to tumor appearance), delayed tumor onset (from 20-26 weeks), and reduced tumor incidence, by 50%, compared with the control nontreated group. Mice of the Nras^Q61K:Ink4a^−/− genotype or WT mice (38-40 mice for each genotype) were administered vehicle or Compound 38 at 0.5 mg/kg by intraperitoneal injection twice a week starting at week 11 after Nras^Q61K activation and Ink4a inactivation. Tumor development was monitored twice per week. Latency and frequency of melanoma development over the 21-week treatment period (weeks 11-32) are shown.

[7] = tested on: E1A/RAS-transformed 4E-BP DKO MEFs; assay: Proliferation of E1A/Ras-transformed MEFs (BrdUrd incorporation); assay type: cell-based; conditions: 48 hours
Description: E1A/Ras-transformed WT or 4e-bp1/4e-bp2 DKO MEFs were treated with either Torin1 or Compound 38 at indicated concentrations and cell proliferation was measured 48 hours later with the aid of BrdUrd incorporation. Values were normalized to DMSO-treated triplicates. Error bars, SD (n=3).

[8] = Hepatic Microsome Stability Human; assay type: in vitro ADME

For `O=C(/C=C/c1cncc(F)c1)c1c(-c2ccccc2)c2cc(Cl)ccc2[nH]c1=O` [Compound 38, 6-Chloro-3-[3-(5-fluoro-pyridin-3-yl)-acryloyl]-4-phenyl-1H-quinolin-2-one], the “Hepatic Microsome Stability (% remaining at 1 Hr) Mouse” value [1] was 38.69 % remaining, the “Hepatic Microsome Stability (% remaining at 1 Hr) Mouse (no NADPH)” value ([1]; no NADPH) was 53.97 % remaining and the IC50 [2] was 2 to 10 µM. The solubility [3] was 5.6 µg/mL (≈ 13.8 µM), the half-life (Compound 38 PK Study) was 2.95 h and the clearance (Compound 38 PK Study; IV 2 mg/kg) was 67 mL/min/kg. The bioavailability (Compound 38 PK Study; oral gavage 10 mg/kg) was 20%, the “dissociation of eIF4G1 from eIF4E in BRAFi-resistant cells” value (eIF4F complex [4]; A375R, Lu1205R and WM793R cells) was “significantly promoted a dose dependent dissociation of eIF4G1 from eIF4E” and the “eIF4G1 association with eIF4E” value (eIF4F complex [4]; A375 and A375R, 24 hours) was “more robust effect”. The “amount of eIF4G1 bound to eIF4E, Compound 38/BRAFi combination” value (eIF4F complex [4]; combination with BRAFi PLX4032, not seen following BRAFi treatment alone) was “decreased the amount of eIF4G1 bound to eIF4E”, the “eIF4G1:eIF4E association (m7GTP pull-down)” value (eIF4F complex [5]) was “reduced eIF4G1:eIF4E association in both WT and 4E-BP DKO MEFs” and the reduced tumor incidence [6] was 50%. The “tumor onset, delayed (from - to)” value [6] was 20-26 weeks, the “proliferation of E1A/RAS-transformed 4E-BP DKO MEFs” value [7] was “attenuated the proliferation” and the “Hepatic Microsome Stability (% Remaining at 1 hr) Human” value [8] was 24.12 % Remaining. The “Hepatic Microsome Stability (% Remaining at 1 hr) Human (no NADPH)” value ([8]; no NADPH) was 57.84 % Remaining.

From US10577349B2 (Sanford Burnham Prebys Medical Discovery Institute, priority 2015, dated 2020)
